Data published in patent publication US7994185B2, “Benzene sulfonamide thiazole and oxazole compounds” (Glaxo Smith Kline LLC, priority 2008, dated 2011).
Counter-ions that a name gives are not always drawn. Like-named read-outs stand apart in the source and are kept apart here.

Experiments:
[1] = molecular target: T1, BRAFV600E full-length (amino acids 2-766) (Homo sapiens, UniProt P15056, V600E); assay: B-Raf Accelerated MEK ATPase assay (BRAMA); format: biochemical; details: categorized
T1 construct: His6-tagged BRAFV600E full-length (amino acids 2-766); His6; made in house; host or cells: baculovirus expression system (insect cells)
T1 sequence (P15056 2-766 V600E): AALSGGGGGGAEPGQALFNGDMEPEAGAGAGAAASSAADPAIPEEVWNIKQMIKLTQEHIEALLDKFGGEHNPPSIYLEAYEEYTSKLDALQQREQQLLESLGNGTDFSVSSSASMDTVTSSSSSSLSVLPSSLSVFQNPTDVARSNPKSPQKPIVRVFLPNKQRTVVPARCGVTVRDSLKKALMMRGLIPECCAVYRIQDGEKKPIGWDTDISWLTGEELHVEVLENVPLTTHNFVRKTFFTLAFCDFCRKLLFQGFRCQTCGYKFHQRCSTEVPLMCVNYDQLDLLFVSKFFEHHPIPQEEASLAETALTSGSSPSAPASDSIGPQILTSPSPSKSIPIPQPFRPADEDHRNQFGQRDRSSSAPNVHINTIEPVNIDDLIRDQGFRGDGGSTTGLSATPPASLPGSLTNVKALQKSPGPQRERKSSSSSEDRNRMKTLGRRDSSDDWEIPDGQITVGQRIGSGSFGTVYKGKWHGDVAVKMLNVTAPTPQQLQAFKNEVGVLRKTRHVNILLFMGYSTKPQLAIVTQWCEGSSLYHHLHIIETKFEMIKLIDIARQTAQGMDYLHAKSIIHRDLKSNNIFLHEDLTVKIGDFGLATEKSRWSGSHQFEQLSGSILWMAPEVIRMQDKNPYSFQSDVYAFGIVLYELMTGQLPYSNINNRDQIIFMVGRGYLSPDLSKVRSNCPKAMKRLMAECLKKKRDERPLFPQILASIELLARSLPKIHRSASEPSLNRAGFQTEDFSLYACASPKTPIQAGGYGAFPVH
In short: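 Coupled-enzyme readout: ADP generated by MEK-mediated ATP hydrolysis, uncoupled from ERK phosphorylation, is linked to NADH oxidation through pyruvate kinase and lactate dehydrogenase.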

[2] = test system: Human melanoma cancer cells (SK-MEL-28); assay: Cell growth inhibition assay (CellTiter-Glo), SK-MEL-28; format: cell-based
[3] = test system: Human colon tumor cells (Colo205); assay: Cell growth inhibition assay (CellTiter-Glo), Colo205; format: cell-based
Experimental: Human colon tumor cells (Colo205) were cultured in RPMI (Mediatech 50-020-PB) containing 10% FBS and 1% penicillin-streptomycin.
The next day, compounds were diluted as follow: For 96-well assays, 13.5 μL of compound in DMSO were diluted using nine (9) serial 1:3 dilutions of 4.5 μL in 9 μL of DMSO. Medium (270 μL/well of RPMI with 10% FBS and 1% penicillin-streptomycin) was added to the plates. Aliquots (7 μL) were added to cells in the final assay giving a final DMSO concentration of 0.2%. For 384-well assays, 15 μL of compound in DMSO were diluted using nine (9) serial 1:3 dilutions of 5 μL in 10 μL of DMSO, followed by a further dilution of 5 μL of compound with 95 μL of medium, of which 2 μL were added to cells in the final assay giving a final DMSO concentration of 0.2%. Cells were incubated at 37° C., 5% CO2 for 3 days.
Total ATP was measured (as a surrogate estimate of cell number) using CellTiter-Glo® reagent (Promega G7571). Briefly, plates were removed from the incubator and allowed to equilibrate to room temperature for 30 minutes. CellTiter-Glo® (25 μL or 55 μL for 384-well or 96-well assays, respectively) reagent was added to each well and plates were shaken on an orbital plate shaker for 2 minutes. Plates were incubated without shaking for a further 30 minutes and read on an LJL Analyst GT reader in luminometer mode with an integration time of 0.5 seconds per well. Percent inhibition of cell growth was calculated relative to DMSO vehicle-treated control wells.

[4] = B-Raf Activity, Table 1a, highest pIC50 for the one or more runs
[5] = Table 1b, later runs, average pIC50 for the one or more runs, read-out: B-Raf pIC50 (converted)
[6] = SK-MEL-28, 72 h, Table 3a, 3 days incubation, read-out: Activity in SK-MEL-28 Tumor Cells
[7] = SK-MEL-28, Table 3b, later runs, average for the one or more runs, categorized, read-out: IC50 for SK-MEL-28
[8] = COLO 205, 72 h, Table 2a, 3 days incubation, read-out: Activity in Colo205 Tumor Cells
[9] = COLO 205, Table 2b, later runs, average for the one or more runs, categorized, read-out: IC50 for Colo205
[10] = B-Raf pIC50, Table 1b, later runs, average pIC50 for the one or more runs

Structure (SMILES) | IC50 [1, 4] | IC50 [1, 5] | IC50 [2, 6] | IC50 [2, 7] | IC50 [3, 8] | IC50 [3, 9] | IC50 [1, 10]
C[C@@H]1CN(c2nc(-c3cccc(NS(=O)(=O)c4c(F)cccc4F)c3F)c(-c3ccnc(N)n3)s2)C[C@H](C)O1 [Example 143] | < 100 nM | 3.16 to 31.6 nM | 100 to 1000 nM | 100 to 1000 nM | 100 to 1000 nM | 100 to 1000 nM | –
CC(C)(C)OC(=O)NCCNc1nccc(-c2sc(C(C)(C)C)nc2-c2cccc(NS(=O)(=O)c3cc(F)ccc3F)c2F)n1 [Example 198] | < 100 nM | – | 100 to 1000 nM | 100 to 1000 nM | 100 to 1000 nM | 100 to 1000 nM | ≤ 3.16 nM
CC(C)c1nc(-c2cccc(NS(=O)(=O)c3cccnc3)c2)c(-c2ccnc(NCCS(C)(=O)=O)n2)s1 [Example 33, N-{3-[2-(1-Methylethyl)-5-(2-{[2-(methylsulfonyl)ethyl]amino}-4-pyrimidinyl)-1,3-thiazol-4-yl]phenyl}-3-pyridinesulfonamide] | < 100 nM | – | < 100 nM | < 100 nM | < 100 nM | < 100 nM | ≤ 3.16 nM
CC(C)c1nc(-c2ccc(F)c(NS(=O)(=O)c3cc(F)ccc3F)c2)c(-c2ccnc(NC3CCN(CCS(C)(=O)=O)CC3)n2)s1 [Example 126] | < 100 nM | – | 100 to 1000 nM | 100 to 1000 nM | 100 to 1000 nM | 100 to 1000 nM | 31.6 to 1000 nM
CC(C)CNc1nccc(-c2sc(N3CCOCC3)nc2-c2cccc(NS(=O)(=O)c3c(F)cccc3F)c2F)n1 [Example 91, 2,6-Difluoro-N-{2-fluoro-3-[5-{2-[(2-methylpropyl)amino]-4-pyrimidinyl}-2-(4-morpholinyl)-1,3-thiazol-4-yl]phenyl}benzenesulfonamide] | < 100 nM | – | < 100 nM | < 100 nM | < 100 nM | < 100 nM | ≤ 3.16 nM
COc1c(NS(=O)(=O)c2c(F)cccc2F)cccc1-c1nc(C(C)C)sc1-c1ccnc(NCC(C)C)n1 [Example 44, 2,6-Difluoro-N-[3-(2-(1-methylethyl)-5-{2-[(2-methylpropyl)amino]-4-pyrimidinyl}-1,3-thiazol-4-yl)-2-(methyloxy)phenyl]benzenesulfonamide] | < 100 nM | 3.16 to 31.6 nM | > 1000 nM | 1000 to 10000 nM | > 1000 nM | 1000 to 10000 nM | –
Cn1cc(S(=O)(=O)Nc2cccc(-c3nc(C4CCOCC4)sc3-c3ccnc(N)n3)c2F)cn1 [Example 286, N-{3-[5-(2-amino-4-pyrimidinyl)-2-(tetrahydro-2H-pyran-4-yl)-1,3-thiazol-4-yl]-2-fluorophenyl}-1-methyl-1H-pyrazole-4-sulfonamide hydrochloride] | – | 3.16 to 31.6 nM | – | 100 to 1000 nM | – | 100 to 1000 nM | –
COc1c(NS(=O)(=O)c2c(F)cccc2F)cccc1-c1nc(N2CCOCC2)sc1-c1ccnc(NCC(C)C)n1 [Example 47, 2,6-Difluoro-N-{2-(methyloxy)-3-[5-{2-[(2-methylpropyl)amino]-4-pyrimidinyl}-2-(4-morpholinyl)-1,3-thiazol-4-yl]phenyl}benzenesulfonamide] | < 100 nM | 3.16 to 31.6 nM | 100 to 1000 nM | 100 to 1000 nM | 100 to 1000 nM | 100 to 1000 nM | –
O=S(=O)(Nc1cccc(-c2nc(N3CCOCC3)sc2-c2ccncn2)c1Cl)c1c(F)cccc1F [Example 27, N-{2-Chloro-3-[2-(4-morpholinyl)-5-(4-pyrimidinyl)-1,3-thiazol-4-yl]phenyl}-2,6-difluorobenzenesulfonamide] | < 100 nM | 3.16 to 31.6 nM | 100 to 1000 nM | 100 to 1000 nM | 100 to 1000 nM | 100 to 1000 nM | –
CC(C)c1nc(-c2cccc(NS(=O)(=O)c3ccco3)c2)c(-c2ccnc(NCCS(C)(=O)=O)n2)s1 [Example 30, N-{3-[2-(1-Methylethyl)-5-(2-{[2-(methylsulfonyl)ethyl]amino}-4-pyrimidinyl)-1,3-thiazol-4-yl]phenyl}-2-furansulfonamide] | < 100 nM | – | < 100 nM | < 100 nM | < 100 nM | < 100 nM | ≤ 3.16 nM
CC(C)c1nc(-c2cccc(NS(=O)(=O)C3CC3)c2)c(-c2ccnc(NCCS(C)(=O)=O)n2)s1 [Example 52, N-{3-[2-(1-Methylethyl)-5-(2-{[2-(methylsulfonyl)ethyl]amino}-4-pyrimidinyl)-1,3-thiazol-4-yl]phenyl}cyclopropanesulfonamide] | 100 to 1000 nM | – | 100 to 1000 nM | 100 to 1000 nM | 100 to 1000 nM | 100 to 1000 nM | 31.6 to 1000 nM
CC(C)CNc1nccc(-c2oc(N3CCCC3)nc2-c2cccc(NS(=O)(=O)c3c(F)cccc3F)c2)n1 [Example 111, 2,6-Difluoro-N-{3-[5-{2-[(2-methylpropyl)amino]-4-pyrimidinyl}-2-(1-pyrrolidinyl)-1,3-oxazol-4-yl]phenyl}benzenesulfonamide] | < 100 nM | – | – | 1000 to 10000 nM | – | 1000 to 10000 nM | 31.6 to 1000 nM
CC(C)(C)c1nc(-c2cccc(NS(=O)(=O)c3cc(F)ccc3F)c2F)c(-c2ccnc(CCS(C)(=O)=O)n2)s1 [Example 214] | < 100 nM | – | < 100 nM | < 100 nM | < 100 nM | < 100 nM | ≤ 3.16 nM
CC(C)(C)c1nc(-c2cccc(NS(=O)(=O)c3cc(F)ccc3F)c2F)c(-c2ccnc(NC3CCOCC3)n2)s1 [Example 138] | < 100 nM | – | > 1000 nM | < 100 nM | < 100 nM | < 100 nM | ≤ 3.16 nM
C[C@@H]1CN(c2nc(-c3cccc(NS(=O)(=O)c4cc(F)ccc4F)c3F)c(-c3ccnc(N)n3)s2)C[C@H](C)O1 [Example 103, N-(3-{5-(2-Amino-4-pyrimidinyl)-2-[(2R,6S)-2,6-dimethyl-4-morpholinyl]-1,3-thiazol-4-yl}-2-fluorophenyl)-2,5-difluorobenzenesulfonamide] | < 100 nM | – | < 100 nM | < 100 nM | < 100 nM | < 100 nM | ≤ 3.16 nM
CC(C)c1nc(-c2ccc(F)c(NS(=O)(=O)c3ccco3)c2)c(-c2ccnc(NC3CCN(S(C)(=O)=O)CC3)n2)s1 [Example 151] | < 100 nM | 3.16 to 31.6 nM | 100 to 1000 nM | 100 to 1000 nM | 100 to 1000 nM | 100 to 1000 nM | –
CC(=O)NCCNc1nccc(-c2sc(C(C)C)nc2-c2ccc(F)c(NS(=O)(=O)c3cc(F)ccc3F)c2)n1 [Example 186] | < 100 nM | 3.16 to 31.6 nM | 100 to 1000 nM | 100 to 1000 nM | 100 to 1000 nM | 100 to 1000 nM | –
CC(C)c1nc(-c2ccc(F)c(NS(=O)(=O)c3cc(F)ccc3F)c2)c(-c2ccnc(NCC3CCN(S(C)(=O)=O)CC3)n2)s1 [Example 129] | < 100 nM | 3.16 to 31.6 nM | 100 to 1000 nM | 100 to 1000 nM | 100 to 1000 nM | 100 to 1000 nM | –
CC(C)(C)c1nc(-c2cccc(NS(=O)(=O)c3cc(F)ccc3F)c2F)c(-c2ccnc(NCC(F)(F)F)n2)s1 [Example 94, N-[3-(2-(1,1-Dimethylethyl)-5-{2-[(2,2,2-trifluoroethyl)amino]-4-pyrimidinyl}-1,3-thiazol-4-yl)-2-fluorophenyl]-2,5-difluorobenzenesulfonamide] | < 100 nM | 3.16 to 31.6 nM | 100 to 1000 nM | 100 to 1000 nM | 100 to 1000 nM | 100 to 1000 nM | –
Cc1nccc(-c2sc(C3CCOCC3)nc2-c2cccc(NS(=O)(=O)c3cc(F)ccc3F)c2F)n1 [Example 246, 2,5-difluoro-N-{2-fluoro-3-[5-(2-methyl-4-pyrimidinyl)-2-(tetrahydro-2H-pyran-4-yl)-1,3-thiazol-4-yl]phenyl}benzenesulfonamide] | – | 3.16 to 31.6 nM | – | < 100 nM | – | < 100 nM | –
CC(C)(C)c1nc(-c2cccc(NS(=O)(=O)c3c(F)cccc3F)c2F)c(-c2ccnc(CCCO)n2)s1 [Example 247, N-(3-{2-(1,1-dimethylethyl)-5-[2-(3-hydroxypropyl)-4-pyrimidinyl]-1,3-thiazol-4-yl}-2-fluorophenyl)-2,6-difluorobenzenesulfonamide] | – | 3.16 to 31.6 nM | – | < 100 nM | – | < 100 nM | –
